Among the targets are MRCKa (Homo sapiens, UniProt Q5VT25); DAPK3 (Homo sapiens, UniProt O43293); EpHA2 (Homo sapiens, UniProt P29317).
Common to all, as to experiment: biochemical
The target in a further test is T1, BRPF1 (Homo sapiens, UniProt P55201).
T1 sequence (P55201 1-1214): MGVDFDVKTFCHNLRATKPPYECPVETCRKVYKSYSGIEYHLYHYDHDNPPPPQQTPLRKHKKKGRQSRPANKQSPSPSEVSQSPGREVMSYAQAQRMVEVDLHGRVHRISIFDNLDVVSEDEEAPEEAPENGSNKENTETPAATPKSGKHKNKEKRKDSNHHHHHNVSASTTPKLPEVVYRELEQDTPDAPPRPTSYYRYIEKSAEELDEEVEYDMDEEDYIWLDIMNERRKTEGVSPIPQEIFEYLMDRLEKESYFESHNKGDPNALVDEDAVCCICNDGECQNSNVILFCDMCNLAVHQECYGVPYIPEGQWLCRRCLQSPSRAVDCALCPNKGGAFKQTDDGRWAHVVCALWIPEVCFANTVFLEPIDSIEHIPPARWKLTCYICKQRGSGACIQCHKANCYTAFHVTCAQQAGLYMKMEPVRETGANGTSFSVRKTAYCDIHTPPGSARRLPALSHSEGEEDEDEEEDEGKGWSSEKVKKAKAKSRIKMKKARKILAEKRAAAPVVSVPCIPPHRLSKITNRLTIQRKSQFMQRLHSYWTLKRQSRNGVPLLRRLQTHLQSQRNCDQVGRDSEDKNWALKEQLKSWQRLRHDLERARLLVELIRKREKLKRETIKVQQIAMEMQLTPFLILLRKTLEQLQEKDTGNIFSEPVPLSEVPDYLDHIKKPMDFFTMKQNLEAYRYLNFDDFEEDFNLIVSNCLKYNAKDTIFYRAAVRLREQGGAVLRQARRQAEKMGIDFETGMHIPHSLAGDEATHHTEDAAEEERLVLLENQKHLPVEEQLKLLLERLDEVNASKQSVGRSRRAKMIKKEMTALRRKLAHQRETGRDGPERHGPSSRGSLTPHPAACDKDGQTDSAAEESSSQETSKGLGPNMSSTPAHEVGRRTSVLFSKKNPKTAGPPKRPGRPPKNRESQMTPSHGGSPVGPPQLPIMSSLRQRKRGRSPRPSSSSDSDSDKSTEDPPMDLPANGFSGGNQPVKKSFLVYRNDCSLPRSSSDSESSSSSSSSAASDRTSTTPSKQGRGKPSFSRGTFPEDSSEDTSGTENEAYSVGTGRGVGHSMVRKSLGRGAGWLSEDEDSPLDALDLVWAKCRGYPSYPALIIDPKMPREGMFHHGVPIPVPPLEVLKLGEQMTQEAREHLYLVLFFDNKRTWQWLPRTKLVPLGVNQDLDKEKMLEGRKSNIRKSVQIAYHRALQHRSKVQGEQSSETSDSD

The target in a further test is T2, BMX (Homo sapiens, UniProt P51813).
T2 sequence (P51813 1-675): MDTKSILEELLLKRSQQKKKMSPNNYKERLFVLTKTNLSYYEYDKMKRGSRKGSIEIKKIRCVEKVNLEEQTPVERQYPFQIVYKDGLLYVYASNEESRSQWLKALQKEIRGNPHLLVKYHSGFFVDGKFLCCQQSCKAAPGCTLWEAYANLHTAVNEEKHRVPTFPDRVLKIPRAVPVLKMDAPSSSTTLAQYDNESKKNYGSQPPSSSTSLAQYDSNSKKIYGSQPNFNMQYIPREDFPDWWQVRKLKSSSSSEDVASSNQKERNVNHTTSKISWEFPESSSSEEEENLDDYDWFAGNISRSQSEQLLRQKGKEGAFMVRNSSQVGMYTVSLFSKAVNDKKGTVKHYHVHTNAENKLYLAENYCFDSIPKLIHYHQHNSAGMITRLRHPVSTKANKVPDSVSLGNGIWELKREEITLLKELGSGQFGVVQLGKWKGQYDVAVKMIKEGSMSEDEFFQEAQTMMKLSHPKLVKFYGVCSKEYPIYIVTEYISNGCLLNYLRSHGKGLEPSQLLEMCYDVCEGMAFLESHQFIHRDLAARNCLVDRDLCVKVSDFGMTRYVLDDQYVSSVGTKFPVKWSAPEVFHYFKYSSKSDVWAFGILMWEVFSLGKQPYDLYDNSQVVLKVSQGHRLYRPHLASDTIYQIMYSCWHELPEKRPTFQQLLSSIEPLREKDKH

The target of a further test is T3, Haspin (Homo sapiens, UniProt Q8TF76).
T3 sequence (Q8TF76 1-798): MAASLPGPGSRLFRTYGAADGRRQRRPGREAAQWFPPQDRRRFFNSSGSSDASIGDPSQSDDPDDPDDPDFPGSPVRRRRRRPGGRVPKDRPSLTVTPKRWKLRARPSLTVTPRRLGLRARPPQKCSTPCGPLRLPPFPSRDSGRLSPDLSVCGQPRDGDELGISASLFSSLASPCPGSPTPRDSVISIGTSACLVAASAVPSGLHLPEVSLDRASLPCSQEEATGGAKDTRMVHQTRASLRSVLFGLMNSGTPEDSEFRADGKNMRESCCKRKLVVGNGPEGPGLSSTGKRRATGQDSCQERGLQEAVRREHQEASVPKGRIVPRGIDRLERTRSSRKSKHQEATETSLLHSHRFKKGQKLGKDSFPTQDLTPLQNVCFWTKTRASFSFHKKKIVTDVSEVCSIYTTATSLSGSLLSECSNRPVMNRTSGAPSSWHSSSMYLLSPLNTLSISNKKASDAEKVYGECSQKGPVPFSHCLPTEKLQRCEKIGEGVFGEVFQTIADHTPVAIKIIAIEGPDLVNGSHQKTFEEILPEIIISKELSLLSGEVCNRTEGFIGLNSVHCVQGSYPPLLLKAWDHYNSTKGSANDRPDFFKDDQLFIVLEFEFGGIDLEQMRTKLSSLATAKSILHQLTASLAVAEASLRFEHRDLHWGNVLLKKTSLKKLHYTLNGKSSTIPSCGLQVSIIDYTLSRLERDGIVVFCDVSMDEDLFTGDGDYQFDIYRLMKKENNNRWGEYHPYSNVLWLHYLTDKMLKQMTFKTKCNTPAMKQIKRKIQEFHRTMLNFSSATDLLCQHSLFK

Read-outs that look alike come from different tables or passages of the source.

EpHA2, sequence (P29317 whole entry): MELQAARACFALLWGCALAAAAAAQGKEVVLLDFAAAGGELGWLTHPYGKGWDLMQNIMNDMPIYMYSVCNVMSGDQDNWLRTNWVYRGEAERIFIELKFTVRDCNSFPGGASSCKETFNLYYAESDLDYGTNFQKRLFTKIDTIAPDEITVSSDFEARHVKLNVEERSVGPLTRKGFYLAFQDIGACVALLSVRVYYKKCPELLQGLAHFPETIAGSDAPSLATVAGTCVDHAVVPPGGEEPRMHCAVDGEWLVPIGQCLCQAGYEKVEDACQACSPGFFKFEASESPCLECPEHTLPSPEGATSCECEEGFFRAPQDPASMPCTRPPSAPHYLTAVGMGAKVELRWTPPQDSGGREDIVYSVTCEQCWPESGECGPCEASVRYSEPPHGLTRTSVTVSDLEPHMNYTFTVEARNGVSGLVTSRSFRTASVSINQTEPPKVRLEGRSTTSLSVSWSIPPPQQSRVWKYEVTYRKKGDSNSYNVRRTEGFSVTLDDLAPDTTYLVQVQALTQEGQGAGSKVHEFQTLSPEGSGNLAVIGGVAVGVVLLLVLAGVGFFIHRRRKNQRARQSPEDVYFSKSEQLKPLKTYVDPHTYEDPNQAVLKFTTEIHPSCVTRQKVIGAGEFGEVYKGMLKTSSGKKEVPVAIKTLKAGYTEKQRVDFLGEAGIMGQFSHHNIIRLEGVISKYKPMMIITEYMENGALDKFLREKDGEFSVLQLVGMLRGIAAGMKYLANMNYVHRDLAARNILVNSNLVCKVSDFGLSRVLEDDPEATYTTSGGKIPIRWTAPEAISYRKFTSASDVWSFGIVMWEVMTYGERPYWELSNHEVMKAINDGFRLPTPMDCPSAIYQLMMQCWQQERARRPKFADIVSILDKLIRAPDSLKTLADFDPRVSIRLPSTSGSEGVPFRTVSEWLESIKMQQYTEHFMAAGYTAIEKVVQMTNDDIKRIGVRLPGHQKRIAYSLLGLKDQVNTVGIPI
DAPK3, sequence (O43293 whole entry): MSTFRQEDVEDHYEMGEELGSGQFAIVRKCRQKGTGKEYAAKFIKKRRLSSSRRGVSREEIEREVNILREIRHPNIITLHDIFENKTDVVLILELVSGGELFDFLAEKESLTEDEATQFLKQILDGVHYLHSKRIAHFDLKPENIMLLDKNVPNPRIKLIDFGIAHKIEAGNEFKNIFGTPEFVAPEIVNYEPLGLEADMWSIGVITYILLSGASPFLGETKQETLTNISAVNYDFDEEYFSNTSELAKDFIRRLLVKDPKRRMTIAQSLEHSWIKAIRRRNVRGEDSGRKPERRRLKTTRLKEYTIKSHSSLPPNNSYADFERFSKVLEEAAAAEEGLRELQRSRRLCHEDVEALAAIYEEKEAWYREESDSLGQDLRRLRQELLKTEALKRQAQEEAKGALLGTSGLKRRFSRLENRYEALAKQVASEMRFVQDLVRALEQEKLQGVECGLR
MRCKa, sequence (Q5VT25 whole entry): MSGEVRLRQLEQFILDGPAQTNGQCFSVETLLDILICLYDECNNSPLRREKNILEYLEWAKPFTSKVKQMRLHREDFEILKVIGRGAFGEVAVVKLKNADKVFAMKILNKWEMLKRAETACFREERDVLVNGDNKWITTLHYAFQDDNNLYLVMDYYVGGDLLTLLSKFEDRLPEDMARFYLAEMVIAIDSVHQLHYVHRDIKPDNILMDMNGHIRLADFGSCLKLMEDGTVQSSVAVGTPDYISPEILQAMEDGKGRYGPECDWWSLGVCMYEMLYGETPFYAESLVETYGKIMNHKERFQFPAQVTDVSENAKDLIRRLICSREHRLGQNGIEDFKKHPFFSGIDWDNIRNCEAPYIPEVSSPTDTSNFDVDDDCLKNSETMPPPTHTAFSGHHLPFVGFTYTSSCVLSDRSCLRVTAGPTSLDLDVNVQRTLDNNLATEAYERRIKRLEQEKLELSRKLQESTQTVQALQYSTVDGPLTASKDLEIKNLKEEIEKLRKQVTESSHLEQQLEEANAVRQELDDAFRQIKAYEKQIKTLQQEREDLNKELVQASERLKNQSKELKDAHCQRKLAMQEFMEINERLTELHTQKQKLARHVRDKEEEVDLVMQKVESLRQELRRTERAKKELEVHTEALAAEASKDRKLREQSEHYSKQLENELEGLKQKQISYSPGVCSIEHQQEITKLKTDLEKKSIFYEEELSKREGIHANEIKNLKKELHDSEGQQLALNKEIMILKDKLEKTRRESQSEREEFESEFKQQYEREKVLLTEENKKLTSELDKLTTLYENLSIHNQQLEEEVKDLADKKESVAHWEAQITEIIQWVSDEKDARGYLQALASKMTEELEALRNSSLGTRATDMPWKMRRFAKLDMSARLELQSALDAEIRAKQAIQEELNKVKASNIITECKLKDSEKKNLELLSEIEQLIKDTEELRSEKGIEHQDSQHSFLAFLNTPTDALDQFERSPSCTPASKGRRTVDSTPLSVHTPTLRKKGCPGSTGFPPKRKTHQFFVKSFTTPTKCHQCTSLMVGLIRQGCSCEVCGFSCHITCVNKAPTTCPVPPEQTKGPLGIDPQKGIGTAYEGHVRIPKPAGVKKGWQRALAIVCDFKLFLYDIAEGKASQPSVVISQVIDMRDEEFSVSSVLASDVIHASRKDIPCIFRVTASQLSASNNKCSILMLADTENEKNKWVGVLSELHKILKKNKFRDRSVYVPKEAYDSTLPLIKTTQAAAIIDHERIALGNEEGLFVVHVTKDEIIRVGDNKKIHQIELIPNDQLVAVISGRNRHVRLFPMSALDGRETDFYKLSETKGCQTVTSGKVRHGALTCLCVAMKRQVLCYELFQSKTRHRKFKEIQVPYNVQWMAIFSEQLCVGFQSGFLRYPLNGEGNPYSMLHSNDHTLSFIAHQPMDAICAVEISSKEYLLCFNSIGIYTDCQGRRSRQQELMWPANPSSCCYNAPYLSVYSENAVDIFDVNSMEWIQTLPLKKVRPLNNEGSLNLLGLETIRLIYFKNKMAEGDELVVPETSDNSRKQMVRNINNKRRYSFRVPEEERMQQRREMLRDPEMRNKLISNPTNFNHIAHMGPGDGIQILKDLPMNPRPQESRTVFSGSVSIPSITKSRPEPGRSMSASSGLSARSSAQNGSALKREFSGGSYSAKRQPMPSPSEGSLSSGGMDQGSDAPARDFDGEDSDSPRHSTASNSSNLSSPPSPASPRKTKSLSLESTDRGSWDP

As to `CNc1ncc2cc(-c3ccccc3Cl)c(=O)n(CCCCN)c2n1` [compound 4, 8-(4-Aminobutyl)-6-(2-chlorophenyl)-2-(methylamino)pyrido[2,3-d]pyrimidin-7(8H)-one], the ΔTm at 10 µM was 0.2 °C on MRCKa (read-out: dTm MR21 (4)), 0.7 °C on BRPF1 (read-out: dTm MR21 (4)), 3.3 °C on BMX (read-out: dTm MR21 (4)) and 0.7 °C at Haspin (read-out: dTm MR21 (4)).

Regarding `CNc1ncc2cc(-c3cc(Br)ccc3Cl)c(=O)n(CCCCN)c2n1` [compound 6, 8-(4-Aminobutyl)-6-(5-bromo-2-chlorophenyl)-2-(methylamino)pyrido[2,3-d]pyrimidin-7(8H)-one], the ΔTm at 10 µM on MRCKa (read-out: dTm 6) is 0.5 °C; on DAPK3 (read-out: dTm 6) it was -0.2 °C; on BRPF1 (read-out: dTm 6), 0.3 °C; at BMX (read-out: dTm 6), 3.8 °C; on Haspin (read-out: dTm 6), 0.7 °C; at EpHA2 (read-out: dTm 6), 6.7 °C.

Take `CNc1ncc2cc(-c3ccc(-c4cccc(C)n4)cc3Cl)c(=O)n(CC3OCC(N)CO3)c2n1` (stereo not shown) [compound 2, G-5555]: the “dTm G-5555 (2)” value is 0.9 °C on MRCKa (10 µM, binder); 0.5 °C on DAPK3 (10 µM, binder); 0.8 °C at BRPF1 (10 µM, binder); 1.3 °C on BMX (10 µM, binder); 0.2 °C on Haspin (10 µM, binder); 2.2 °C at EpHA2 (10 µM, binder).

As for `CNc1ncc2cc(-c3cc(F)ccc3F)c(=O)n(CCCCN)c2n1` [compound 5, 8-(4-Aminobutyl)-6-(2,5-difluorophenyl)-2-(methylamino)pyrido[2,3-d]pyrimidin-7(8H)-one], the ΔTm at 10 µM on MRCKa (read-out: dTm MR22 (5)) is -0.5 °C; on DAPK3 (read-out: dTm MR22 (5)), 0.5 °C; at BRPF1 (read-out: dTm MR22 (5)), -1 °C; at BMX (read-out: dTm MR22 (5)), 1.9 °C; at Haspin (read-out: dTm MR22 (5)), -0.3 °C; on EpHA2 (read-out: dTm MR22 (5)), 6.5 °C.

As to `CNc1ncc2cc(-c3cc(Br)ccc3Cl)c(=O)n(C[C@H]3OC[C@H](N)CO3)c2n1` [compound 7, 8-(((2r,5r)-5-Amino-1,3-dioxan-2-yl)methyl)-6-(5-bromo-2-chlorophenyl)-2-(methylamino)pyrido[2,3-d]pyrimidin-7(8H)-one], the ΔTm at 10 µM on MRCKa (read-out: dTm 7) was 0.1 °C; at DAPK3 (read-out: dTm 7), -0.4 °C; on BRPF1 (read-out: dTm 7), -0.7 °C; on BMX (read-out: dTm 7), 3.2 °C; on Haspin (read-out: dTm 7) it was 0.7 °C; at EpHA2 (read-out: dTm 7), 4.8 °C.

(Values after paper doi:10.1101/2023.03.24.534094v2 (biorxiv, 2023).)
